# Tests used:
# [1] = biological target: T1, panel of 442 kinases (Homo sapiens, UniProt P51817); format: binding; conditions: Compound Concentration 10 µM
# T1 construct: purchased KINOMEscan
# T1 sequence (P51817 1-358): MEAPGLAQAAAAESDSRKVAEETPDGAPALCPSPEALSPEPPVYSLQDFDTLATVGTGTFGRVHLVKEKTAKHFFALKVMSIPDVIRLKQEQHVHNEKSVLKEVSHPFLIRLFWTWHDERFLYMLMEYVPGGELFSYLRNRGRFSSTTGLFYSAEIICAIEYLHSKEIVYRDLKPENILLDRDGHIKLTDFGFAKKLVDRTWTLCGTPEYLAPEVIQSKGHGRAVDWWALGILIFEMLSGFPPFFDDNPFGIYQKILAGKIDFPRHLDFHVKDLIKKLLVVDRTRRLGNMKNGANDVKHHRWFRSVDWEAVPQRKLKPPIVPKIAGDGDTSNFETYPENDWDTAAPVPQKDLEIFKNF
# From the text: (§1) We assessed the selectivity of members of this scaffold using the KINOMEscan methodology across a near comprehensive panel of 442 kinases [[18,27]].
# [2] = biological target: T2, panel of 442 kinases (Homo sapiens, UniProt O95835); format: binding; conditions: Compound Concentration 10 µM
# T2 construct: purchased KINOMEscan
# T2 sequence (O95835 1-1130): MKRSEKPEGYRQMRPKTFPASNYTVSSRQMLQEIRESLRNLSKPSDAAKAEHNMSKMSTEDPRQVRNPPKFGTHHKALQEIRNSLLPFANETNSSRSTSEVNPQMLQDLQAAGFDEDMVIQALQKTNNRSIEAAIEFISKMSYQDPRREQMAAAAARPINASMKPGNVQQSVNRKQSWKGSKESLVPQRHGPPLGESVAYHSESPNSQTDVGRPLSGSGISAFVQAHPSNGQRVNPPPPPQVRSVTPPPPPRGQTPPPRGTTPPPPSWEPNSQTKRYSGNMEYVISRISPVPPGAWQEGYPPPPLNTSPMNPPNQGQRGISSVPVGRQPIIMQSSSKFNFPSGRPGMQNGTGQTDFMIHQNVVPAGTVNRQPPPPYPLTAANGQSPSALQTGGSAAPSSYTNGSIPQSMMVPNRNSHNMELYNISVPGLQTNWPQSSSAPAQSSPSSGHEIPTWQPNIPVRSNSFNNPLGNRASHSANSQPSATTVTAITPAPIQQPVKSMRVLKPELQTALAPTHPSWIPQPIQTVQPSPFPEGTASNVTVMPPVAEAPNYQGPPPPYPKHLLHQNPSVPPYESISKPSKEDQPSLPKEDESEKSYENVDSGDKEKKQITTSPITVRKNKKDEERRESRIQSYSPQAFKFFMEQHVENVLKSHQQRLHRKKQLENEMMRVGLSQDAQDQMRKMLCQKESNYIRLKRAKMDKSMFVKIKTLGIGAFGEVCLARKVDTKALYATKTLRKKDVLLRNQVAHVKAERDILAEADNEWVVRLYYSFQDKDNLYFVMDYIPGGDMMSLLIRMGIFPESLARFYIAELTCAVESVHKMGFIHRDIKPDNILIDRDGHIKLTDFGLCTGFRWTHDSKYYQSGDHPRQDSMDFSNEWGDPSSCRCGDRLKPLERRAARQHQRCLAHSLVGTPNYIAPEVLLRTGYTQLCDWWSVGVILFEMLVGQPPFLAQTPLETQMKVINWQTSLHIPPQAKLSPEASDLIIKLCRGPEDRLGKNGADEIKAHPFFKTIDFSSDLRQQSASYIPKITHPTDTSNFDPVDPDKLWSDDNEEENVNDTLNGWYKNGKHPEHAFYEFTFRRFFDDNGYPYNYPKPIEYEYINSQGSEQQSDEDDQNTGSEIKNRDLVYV
# From the text: as §1
SMILES,KINOMEscan: PRKX [1],KINOMEscan: LATS1 [2]
"COc1cc(C(=O)N2CCC(N3CCN(C)CC3)CC2)ccc1Nc1ncc2c(n1)N(C1CCCC1)c1ccccc1C(=O)N2C [Compound 25, 11-cyclopentyl-2-((2-methoxy-4-(4-(4-methylpiperazin-1-yl)piperidine-1-carbonyl)phenyl)amino)-5-methyl-5H-benzo[e]pyrimido[5,4-b][1,4]diazepin-6(11H)-one]",100,100
CCOc1cc(C(=O)N2CCC(N3CCN(C)CC3)CC2)ccc1Nc1ncc2c(n1)N(C1CCCC1)c1ccccc1C(=O)N2C [Compound 26],100,100
COc1cc(C(=O)N2CCC(N3CCN(C)CC3)CC2)ccc1Nc1ncc2c(n1)N1CCc3cccc(c31)C(=O)N2C [Compound 24],87,–
COc1cc(C(=O)N2CCC(N3CCN(C)CC3)CC2)ccc1Nc1ncc2c(n1)N(C)c1ccccc1C(=O)N2C [15 (LRRK2-IN-1)],99,100

# Reference: paper PMC3914206
